From PubChem BioAssay (NCI) come the findings set out here.

Test in all cases: NCI anticancer screen, dose series, 48 h
The subject of test [1] is CCRF-CEM leukemia.
Test [2] relates to U251 CNS.
The subject of test [3] is HT29 colon.
Test [4] relates to RPMI-8226 leukemia.
Test [5] deals with RXF 393 renal.
Test [6] relates to SNB-75 CNS.
The test system of test [7] is NCI-H23 lung.
Test [8] relates to EKVX NSCLC.
The subject of test [9] is UACC-62 melanoma.
In test [10] the test system is MOLT-4 leukemia.

Structures are written as SMILES.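 Five concentrations, 48 hours, 96-well plates. Here, GI50 denotes the concentration required for 50% inhibition of growth. The concentration for full growth arrest is given as TGI.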 Where a SMILES comes first, the peptide text is derived from it. [ ]: non-standard residue; d: D form. Bounds are passed on as bounds.

With `Cc1ccc(C)c(NC(=O)C(=O)Nn2c(=S)[nH]c3ccccc3c2=O)c1`, the TGI in [1], in test [2], in [3], in test [4], in test [5] and in [6] was more than 100 µM in each case. Moreover, the TGI in test [7], in test [8], in [9] and in [10] was more than 100 µM in each case.
`NC1=Nc2ccccc2Sc2ccccc21`: the TGI in test [1] is more than 100 µM; in test [2] it was more than 100 µM; in test [3], more than 100 µM; in test [4], more than 100 µM; in [5] it was more than 100 µM; in test [6] it was 53.2 µM. The TGI in test [7], in test [8], in test [9] and in test [10] was more than 100 µM each time.
Consider `O=C(N/C(=C\c1ccc(F)cc1)c1nc2ccccc2[nH]1)c1ccccc1`, for which the TGI in test [1], in test [2], in [3], in [4], in test [5] and in test [6] was more than 100 µM throughout. The TGI in [7], in test [8], in [9] and in [10] was more than 100 µM in each case.
On to `CSc1nc2ccc(C)cc2cc1/C=C1/C=C(c2ccccc2)NC1=O`, for which the GI50 in [1] is 26.4 µM; in test [2], 0.602 µM; in test [3], 3.44 µM; in test [4] it was 8.9 µM; in [5], 3.06 µM; in test [6], 2.81 µM. In addition, the GI50 was 10 µM in test [7], 13.1 µM in test [8], 10.8 µM in test [9] and 15.5 µM in test [10]. Moreover, the TGI was more than 100 µM in test [1]; 3.68 µM in test [2]; more than 100 µM in test [3]; more than 100 µM in test [4]; 14.8 µM in test [6]; more than 100 µM in test [7]. Also, the figures for the TGI in test [8], in test [9] and in test [10] were more than 100 µM, 48.2 µM and more than 100 µM, respectively.
As for `N#Cc1cc2c(cc1Cl)SC(=Nc1ccccc1)N(S(=O)(=O)c1ccc(Br)s1)S2(=O)=O`, the GI50 in test [1] was 21.8 µM; in test [2], 19.4 µM; in test [3], 32.3 µM; in [4], 23.6 µM; in test [5] it was 15.1 µM; in test [6], 24 µM. Further, the GI50 in test [7] was 19.3 µM; in [8], 19.5 µM; in test [9] it was 20.8 µM; in test [10], 15.9 µM. In addition, the TGI in [1] was 45 µM; in [2], 42.5 µM; in [3], more than 100 µM; in test [4] it was 67.6 µM; in test [5], 45.1 µM; in test [6], 51.7 µM. The TGI was 38 µM in test [7], 35.1 µM in test [8], 36.3 µM in [9] and 46.2 µM in test [10].
Turning to `CC1OC(=O)N2CCC=CC12` (stereo not given), the TGI in test [1], in test [2], in test [3], in test [4], in test [5] and in [6] was more than 100 µM in each case. The TGI in [7], in test [8], in [9] and in test [10] was more than 100 µM each time.
`CC1=C(SCCC(=O)OC(C[Se]C2=C(C)C(=O)c3ccccc3C2=O)C(=O)NC(C)(C)C)C(=O)c2ccccc2C1=O` (stereo not given): the GI50 was 0.306 µM in [1]; 0.45 µM in test [2]; 1.78 µM in test [3]; 0.507 µM in [4]; 1.73 µM in [5]; 1.45 µM in [6]. Further, the GI50 in test [7] was 1.13 µM; in test [8], 1.58 µM; in test [9] it was 1.48 µM; in test [10], 0.274 µM. The TGI came to 1.2 µM in [1]; 1.57 µM in [2]; 3.39 µM in [3]; 2.71 µM in test [4]; 3.33 µM in [5]; 2.76 µM in [6]. The TGI in test [7] turned out to be 2.69 µM; in [8] it was 4.48 µM; in [9] it was 2.83 µM; in test [10] it was 1.31 µM.
Regarding `CC1(C2CCC3(C)C(C2)C3Sc2ccccc2)OCCO1` (stereo not given), the TGI in [1] was 40.3 µM; in test [2] it was 42.8 µM; in [3], 41.4 µM; in test [4] it was 32.7 µM; in [5], 32.4 µM; in test [6], more than 100 µM. Besides, the TGI in test [7] was 66.3 µM; in test [8], 66.2 µM; in [9], 43.1 µM; in [10] it was 38.4 µM.
Turning to `CN(C)C(=S)/N=c1\ss/c(=N\S(=O)(=O)c2ccccc2)n1C`, the TGI in test [1], in test [2], in [3], in [4], in test [5] and in [6] was more than 100 µM each time. Besides, the TGI in [7], in [8], in test [9] and in [10] was more than 100 µM throughout.
With `CN(C)CCOc1ccc2c(c1)C(=O)/C(=C\c1ncc([N+](=O)[O-])n1C)C2`, the GI50 in test [1] is 1.39 µM; in test [2] it was 1.12 µM; in test [3], 0.346 µM; in [4] it was 2.14 µM; in [5] it was 0.316 µM; in [6] it was 0.474 µM. The GI50 in [7] was 0.258 µM; in test [8], 0.711 µM; in [9], 0.851 µM; in test [10], 0.358 µM. Besides, the TGI in test [1] is more than 100 µM; in test [2] it was 4.75 µM; in [3], 2.25 µM; in test [4], 14.4 µM; in [5], 1.25 µM; in test [6], 1.98 µM. The TGI in test [7] was found to be 1.3 µM; in test [8], 3.83 µM; in test [9], 2.49 µM; in test [10] it was 1.65 µM.
As to `CC(CC(=O)Nc1ccc(NC(=O)CC(C)N=NC(N)=O)cc1)N=NC(N)=O` (stereo not given), the TGI in test [1], in test [2], in [3], in test [4], in test [5] and in test [6] was more than 100 µM throughout. In addition, the TGI in [7], in [8], in test [9] and in test [10] was more than 100 µM in each case.
As for `CNC(=O)c1cc(-c2ccc(F)cc2)cc(-c2ccc(S(=O)(=O)N3CCCC3)cc2)c1N`, the GI50 was more than 20.7 µM in test [1]; 15.1 µM in [2]; 15.7 µM in test [3]; 10.1 µM in test [4]; 14.7 µM in test [5]; 12.7 µM in [6]. For the same compound, the GI50 was more than 25 µM in [7], 10.2 µM in test [8], more than 23.1 µM in [9] and 15.5 µM in test [10]. For the same compound, the TGI in [1], in test [2], in [3], in test [4], in test [5] and in [6] was more than 25 µM each time. In addition, the TGI in [7], in [8], in test [9] and in [10] was more than 25 µM throughout.
Consider `CCCCCCCCc1cc(O)ccc1O`, for which the GI50 in test [1] is 4.09 µM; in [2] it was 18.5 µM; in test [3], 16.1 µM; in test [4], 10.5 µM; in test [5], 10.7 µM; in test [6], 13.3 µM. For the same compound, the GI50 is 17.3 µM in test [7], 18.1 µM in test [8], 13.6 µM in test [9] and 17.3 µM in test [10]. For the same compound, the TGI was 33.3 µM in test [1]; 40.6 µM in test [2]; 49.4 µM in test [3]; 48.5 µM in test [4]; 24.9 µM in test [5]; 47.3 µM in [6]. The TGI in test [7] is 42 µM; in [8] it was 61.1 µM; in test [9], 26.6 µM; in test [10], 72.8 µM.
As to `COc1cc([C@@H]2c3cc4c(cc3[C@@H](NCc3cccc(F)c3)C3COC(=O)[C@@H]32)OCO4)cc(OC)c1O` (stereo not given in full), the TGI in test [1] stood at 18.1 µM; in [2], 7.11 µM; in test [3], 29.5 µM; in [4] it was 19.2 µM; in [5] it was 45.3 µM; in test [6], 13.5 µM. Besides, the TGI in [7] was 7.89 µM; in [8] it was 38 µM; in test [9], 10.3 µM; in test [10] it was 5.59 µM.
`NC(=O)c1nc(-c2ccc(Cl)c(Cl)c2)nc2ccccc12`: the TGI in test [1] is more than 100 µM; in test [2] it was more than 100 µM; in [3], more than 100 µM; in test [4], more than 100 µM; in test [5], more than 22.2 µM; in test [6] it was 11.7 µM. Also, the TGI in test [7], in [8], in test [9] and in [10] was more than 100 µM throughout.
With `COC(=O)C(/C(=N\O)C(=O)Nc1ccc(Br)cc1)c1nc2ccccc2[nH]c1=O` (stereo not given), the TGI in test [1] was 72.9 µM; in test [2] it was more than 100 µM; in test [3], more than 100 µM; in [4] it was 61.6 µM; in [5], 89.2 µM; in test [6], more than 100 µM. Moreover, the TGI is more than 100 µM in [7], more than 100 µM in test [8], 73.1 µM in test [9] and 57.5 µM in test [10].
Take `O=C(CCc1cc(-c2ccc(F)cc2)n[nH]1)N(Cc1ccccc1)Cc1ccccc1`: the TGI in [1], in test [2], in test [3], in test [4], in [5] and in test [6] was more than 100 µM throughout. In addition, the TGI in test [7], in test [8], in test [9] and in test [10] was more than 100 µM in each case.
Consider `Oc1ccc(O)c(-n2cccn2)c1-n1cccn1`, for which the TGI in test [1] was more than 10 µM; in [2], more than 100 µM; in test [3], more than 100 µM; in test [4] it was more than 100 µM; in [5], more than 100 µM; in test [6], more than 100 µM. Besides, the TGI in test [7] was more than 100 µM; in [8], more than 100 µM; in [9], more than 100 µM; in test [10] it was more than 10 µM.
As for `CSCC[C@H](NC(=O)[C@@H](N)CC(N)=O)C(=O)N[C@@H](Cc1c[nH]c2ccccc12)C(=O)N[C@@H](CCC(N)=O)C(=O)N[C@@H](CCC(=O)O)C(=O)N[C@H](C(=O)NCC(=O)N[C@@H](CCCCN)C(=O)N[C@H](C)C(=O)O)C(C)C` (H-NMWQEVGK[dA]-OH), the TGI in [1], in test [2], in test [3], in test [4], in test [5] and in test [6] was more than 100 µM throughout. The TGI in [7], in test [8], in test [9] and in [10] was more than 100 µM each time.
In the case of `NC1=C(O)C(=O)C(c2c[nH]c3ccc(OCc4ccccc4)cc23)O1` (stereo not given), in test [1], the GI50 was more than 100 µM. Moreover, the TGI is more than 100 µM in test [1]; more than 100 µM in [2]; more than 100 µM in test [3]; more than 100 µM in test [4]; more than 100 µM in test [5]; more than 91.3 µM in [6]. For the same compound, the TGI in test [7], in test [8], in [9] and in test [10] was more than 100 µM in each case.
`N=C1C=C(N)C(=O)c2ccccc21`: the GI50 was 0.308 µM in test [1]; 0.183 µM in test [2]; 0.386 µM in test [3]; 0.241 µM in test [4]; 0.182 µM in test [5]; 0.151 µM in test [6]. In addition, the GI50 in [7] was 0.219 µM; in test [8] it was 0.202 µM; in [9], 0.181 µM; in [10], 0.215 µM. Also, the TGI in test [1] was more than 100 µM; in [2] it was 0.339 µM; in test [3], 1.82 µM; in test [4], 0.669 µM; in [5], 0.337 µM; in test [6], 0.293 µM. Moreover, the TGI was 0.61 µM in test [7], 0.421 µM in test [8], 0.352 µM in test [9] and 0.558 µM in test [10].
